From US8697739B2, “Bicyclic acetyl-CoA carboxylase inhibitors and uses thereof” (Novartis AG, priority 2010, dated 2014)

Target: T1, human acetyl-CoA carboxylase 2 (ACC2) (Homo sapiens, UniProt O00763)
T1 construct: The cDNA encoding amino acids 144 to 2458 of human acetyl-CoA carboxylase 2; made in house; host or cells: Sf9 insect cells (baculovirus, pFastBac1)
Assay: Acetyl-CoA carboxylase enzyme assay (malonyl-CoA formation by LC/MS/MS)
Type: biochemical
Details: recombinant human ACC2 (aa 144-2458); read-out: IC50 ACC2
Outline: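 Malonyl-CoA formation was read by LC/MS/MS MRM against a [13C3]-malonyl-CoA internal standard, after acetic acid quench. The enzyme was baculovirus/Sf9-expressed human ACC2 residues 144–2458, given 15 minutes room-temperature compound preincubation in HEPES pH 7.5 buffer with MgCl2, citrate and DTT. Substrate solution held 50 μM acetyl-CoA, 120 μM ATP and 2 mM KHCO3.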

T1 sequence (O00763 144-2458): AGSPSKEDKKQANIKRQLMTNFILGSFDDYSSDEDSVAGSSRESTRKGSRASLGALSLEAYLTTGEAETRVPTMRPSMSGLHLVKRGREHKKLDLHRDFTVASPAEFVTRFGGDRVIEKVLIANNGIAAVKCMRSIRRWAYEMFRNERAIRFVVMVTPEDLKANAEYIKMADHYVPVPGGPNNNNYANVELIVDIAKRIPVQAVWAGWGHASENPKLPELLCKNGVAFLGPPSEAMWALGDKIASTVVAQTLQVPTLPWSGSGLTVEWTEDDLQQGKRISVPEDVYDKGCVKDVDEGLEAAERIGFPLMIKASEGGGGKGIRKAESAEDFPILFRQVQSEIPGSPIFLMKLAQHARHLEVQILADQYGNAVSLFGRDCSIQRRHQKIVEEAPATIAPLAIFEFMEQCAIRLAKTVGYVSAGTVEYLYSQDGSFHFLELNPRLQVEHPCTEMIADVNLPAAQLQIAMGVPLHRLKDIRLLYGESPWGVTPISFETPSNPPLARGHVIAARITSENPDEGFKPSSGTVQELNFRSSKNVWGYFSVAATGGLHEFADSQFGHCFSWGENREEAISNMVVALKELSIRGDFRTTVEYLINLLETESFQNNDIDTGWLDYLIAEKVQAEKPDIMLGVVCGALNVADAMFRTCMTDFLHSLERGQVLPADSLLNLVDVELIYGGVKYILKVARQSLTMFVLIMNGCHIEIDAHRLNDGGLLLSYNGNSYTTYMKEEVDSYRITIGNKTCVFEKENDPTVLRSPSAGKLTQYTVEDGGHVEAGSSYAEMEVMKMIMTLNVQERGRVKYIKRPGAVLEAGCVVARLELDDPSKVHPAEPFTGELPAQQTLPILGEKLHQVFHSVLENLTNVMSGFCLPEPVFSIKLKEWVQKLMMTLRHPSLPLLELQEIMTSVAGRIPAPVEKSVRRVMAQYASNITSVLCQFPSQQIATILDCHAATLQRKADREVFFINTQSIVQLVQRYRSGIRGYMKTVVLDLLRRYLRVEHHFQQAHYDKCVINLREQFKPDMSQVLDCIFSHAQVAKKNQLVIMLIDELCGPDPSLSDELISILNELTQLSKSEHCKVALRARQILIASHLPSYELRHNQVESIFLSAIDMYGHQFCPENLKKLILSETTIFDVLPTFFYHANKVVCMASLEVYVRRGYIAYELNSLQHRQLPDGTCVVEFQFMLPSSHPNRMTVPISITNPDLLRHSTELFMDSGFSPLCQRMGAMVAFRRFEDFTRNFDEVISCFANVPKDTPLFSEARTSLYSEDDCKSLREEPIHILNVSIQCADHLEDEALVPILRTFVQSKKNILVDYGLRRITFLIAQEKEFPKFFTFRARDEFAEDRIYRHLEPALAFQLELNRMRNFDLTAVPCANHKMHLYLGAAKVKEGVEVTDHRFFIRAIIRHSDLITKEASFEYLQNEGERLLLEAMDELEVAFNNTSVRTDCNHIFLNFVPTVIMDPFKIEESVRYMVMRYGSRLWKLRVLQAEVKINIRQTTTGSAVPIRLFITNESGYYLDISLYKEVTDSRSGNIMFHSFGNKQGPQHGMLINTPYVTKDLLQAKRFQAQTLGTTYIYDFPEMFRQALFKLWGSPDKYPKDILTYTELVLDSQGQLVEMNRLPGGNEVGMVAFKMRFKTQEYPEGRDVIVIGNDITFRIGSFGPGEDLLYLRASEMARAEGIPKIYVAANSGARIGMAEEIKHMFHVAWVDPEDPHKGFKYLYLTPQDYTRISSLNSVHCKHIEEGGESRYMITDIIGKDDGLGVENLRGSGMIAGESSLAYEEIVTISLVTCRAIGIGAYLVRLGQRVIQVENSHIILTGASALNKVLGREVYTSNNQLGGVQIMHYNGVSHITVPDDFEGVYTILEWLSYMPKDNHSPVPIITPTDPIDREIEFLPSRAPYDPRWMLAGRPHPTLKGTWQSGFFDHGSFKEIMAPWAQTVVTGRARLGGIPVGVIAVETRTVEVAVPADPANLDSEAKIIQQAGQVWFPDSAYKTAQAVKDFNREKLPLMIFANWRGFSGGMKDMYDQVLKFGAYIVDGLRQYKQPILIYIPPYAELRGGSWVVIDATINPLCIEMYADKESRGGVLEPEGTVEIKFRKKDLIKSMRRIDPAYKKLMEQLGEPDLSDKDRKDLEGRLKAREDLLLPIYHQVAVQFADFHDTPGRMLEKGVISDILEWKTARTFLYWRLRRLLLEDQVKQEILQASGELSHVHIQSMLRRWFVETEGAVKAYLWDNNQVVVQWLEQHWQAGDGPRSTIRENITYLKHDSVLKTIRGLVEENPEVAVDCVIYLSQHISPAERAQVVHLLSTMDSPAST

Compound | IC50 [nM]
CC(C)Cc1cc2ccc(S(=O)(=O)N[C@H]3CC[C@H](C(=O)N[C@H](C)c4ccc(F)cc4)CC3)cc2[nH]1 [Example 303, (1r,4R)-N-((R)-1-(4-fluorophenyl)ethyl)-4-(2-isobutyl-1H-indole-6-sulfonamido)cyclohexanecarboxamide] | 575
C[C@@H](NC(=O)[C@H]1CC[C@H](NS(=O)(=O)c2ccc3cc(C4CCCC4)[nH]c3c2)CC1)c1ccc(F)cc1 [Example 304, (1r,4R)-4-(2-cyclopentyl-1H-indole-6-sulfonamido)-N-((R)-1-(4-fluorophenyl)ethyl)cyclohexanecarboxamide] | 180
C[C@@H](NC(=O)[C@H]1CC[C@H](NS(=O)(=O)c2ccc3cc(CCO)[nH]c3c2)CC1)c1ccc(F)cc1 [Example 305, (1r,4R)-N-((R)-1-(4-fluorophenyl)ethyl)-4-(2-(2-hydroxyethyl)-1H-indole-6-sulfonamido)cyclohexanecarboxamide] | 60
C[C@@H](NC(=O)[C@H]1CC[C@H](NS(=O)(=O)c2ccc3cc(CCOS(C)(=O)=O)[nH]c3c2)CC1)c1ccc(F)cc1 [Example 306, 2-(6-(N-((1R,4r)-4-((R)-1-(4-fluorophenyl)ethylcarbamoyl)cyclohexyl)sulfamoyl)-1H-indol-2-yl)ethyl methanesulfonate] | 50
C[C@@H](NC(=O)[C@H]1CC[C@H](NS(=O)(=O)c2ccc3cc(-c4ccccc4C#N)[nH]c3c2)CC1)c1ccc(F)cc1 [Example 307, (1r,4R)-4-(2-(2-cyanophenyl)-1H-indole-6-sulfonamido)-N-((R)-1-(4-fluorophenyl)ethyl)cyclohexanecarboxamide] | 10
Cc1cc(CO)ccc1-c1cc2ccc(S(=O)(=O)N[C@H]3CC[C@H](C(=O)N4CCOCC4)CC3)cc2[nH]1 [Example 308, 2-(4-(hydroxymethyl)-2-methylphenyl)-N-((1r,4r)-4-(morpholine-4-carbonyl)cyclohexyl)-1H-indole-6-sulfonamide] | 60
Cc1cc(CO)ccc1-c1cc2ccc(S(=O)(=O)N[C@H]3CC[C@H](C(=O)N4CCN(C(=O)OC(C)(C)C)C[C@@H]4c4ccccc4)CC3)cc2[nH]1 [Example 309, (S)-tert-butyl 4-((1r,4S)-4-(2-(4-(hydroxymethyl)-2-methylphenyl)-1H-indole-6-sulfonamido)cyclohexanecarbonyl)-3-phenylpiperazine-1-carboxylate] | 20
Cc1cc(CO)ccc1-c1cc2ccc(S(=O)(=O)N[C@H]3CC[C@H](C(=O)N4CCN(C(=O)OC(C)(C)C)CC4)CC3)cc2[nH]1 [Example 310, tert-butyl 4-((1r,4r)-4-(2-(4-(hydroxymethyl)-2-methylphenyl)-1H-indole-6-sulfonamido)cyclohexanecarbonyl)piperazine-1-carboxylate] | 62
Cc1cc(CO)ccc1-c1cc2ccc(S(=O)(=O)N[C@H]3CC[C@H](C(=O)N4CCOCC4c4ccccc4)CC3)cc2[nH]1 (stereo partly drawn) [Example 311, 2-(4-(hydroxymethyl)-2-methylphenyl)-N-((1r,4r)-4-(3-phenylmorpholine-4-carbonyl)cyclohexyl)-1H-indole-6-sulfonamide] | < 10
Cc1cc(CO)ccc1-c1cc2ccc(S(=O)(=O)N[C@H]3CC[C@H](C(=O)N4CCNCC4)CC3)cc2[nH]1 [Example 312, 2-(4-(hydroxymethyl)-2-methylphenyl)-N-((1r,4r)-4-(piperazine-1-carbonyl)cyclohexyl)-1H-indole-6-sulfonamide] | 599
Cc1cc(CO)ccc1-c1cc2ccc(S(=O)(=O)N[C@H]3CC[C@H](C(=O)N4CCNC[C@@H]4c4ccccc4)CC3)cc2[nH]1 [Example 313, 2-(4-(hydroxymethyl)-2-methylphenyl)-N-((1S,4r)-4-((S)-2-phenylpiperazine-1-carbonyl)cyclohexyl)-1H-indole-6-sulfonamide] | < 10
Cc1cc(CO)ccc1-c1cc2ccc(S(=O)(=O)N[C@H]3CC[C@H](C(=O)N4CCCCC4)CC3)cc2[nH]1 [Example 314, 2-(4-(hydroxymethyl)-2-methylphenyl)-N-((1r,4r)-4-(piperidine-1-carbonyl)cyclohexyl)-1H-indole-6-sulfonamide] | 60
